# According to patent US20170191058A1, “PERFORIN 2 DEFENSE AGAINST INVASIVE AND MULTIDRUG RESISTANT PATHOGENS” (priority 2012, published 2017):
# Entries after “also recorded” stand apart in the source; their conditions may differ. Residues, ends and D or L forms follow the SMILES beside them. *: point of attachment. Cbz = O=C(OCc1ccccc1)*
# Legend:
# [1] = system: Salmonella; assay: Gentamycin protection assay: intracellular Salmonella in mEF; format: cell-based, Salmonella typhimurium
# Protocol: Mouse rectal carcinoma CMT-93 was transiently transfected with a P-2 siRNA pool, or with P-2-RFP. Scramble siRNA or RFP were also transfected and analyzed to serve as controls for P-2 siRNA and P-2-RFP respectively. All transfections were performed 24 hours prior to infection. 14 hours prior to infection, cells were incubated with 100 U/ml of species specific IFN-γ. At indicated time points after infection, cells were lysed and plated for CFU analysis. (FIGS. 16A-16D) mEF were transfected with P-2siRNA and complemented with siRNA resistant P-2-RFP cDNA 24 hours prior to infection. 14 hours prior to infection, interferon-γ was added. mEF were infected with late log phase S. typhimurium. At indicated time points mEFs were lysed and analyzed for colony forming units. […]
# S. typhimurium strain LT2Z), Mycobacterium smegmatis, methicillin-resistant Staphylococcus aureus, and E. coli strain K12 were grown from glycerol stocks at 37° C. with shaking for 24 hours in Luria broth (S. typhimurium, S. aureus, and E. coli) or Middlebrook 7H9 broth (M. smegmatis). […] At indicated time points, cells were washed with PBS, lysed using 1% Igepal in ddH2O, diluted and plated in technical triplicate on LB agar plates (S. typhimurium, S. aureus, E. coli) or Middlebrook 7H11 plates (M. smegmatis) and CFU determined after sufficient colony growth.
# [2] = system: E. coli, S. typhimurium, M. smegmatis; assay: Gentamycin protection assay in PEM infected with E. coli, S. typhimurium or M. smegmatis (FIG. 1); format: cell-based; conditions: 10 mM NAC, 10 mM L-NAME or pool of 3 siRNAs, CFU at 1 h and 5 h
# Protocol: The gentamycin protection assay was carried out as in FIGS. 2A-2F. 24 h after transfection with P-2 siRNA or scrambled siRNA. PEM were infected with (FIG. 1A) E. coli, (FIG. 1B) S. typhimurium, or (FIG. 1C) M. smegmatis. Inhibitors were added 1 h before infection and maintained throughout assay. Cells were lysed and CFU determined at 1 h and 5 h post-infection. Data shown are representative of 3 experiments with 2 replicates; asterisks denote significance (p<0.05) based on students t-test.
# Gentamicin protection assay: S. typhimurium strain LT2Z, Mycobacterium avium, Mycobacterium smegmatis (ATCC), methicllin resistant Staphylococcus aureus and K12 E. coli were grown from glycerol stocks at 37° C. with shaking for 16-18 hr in Luria broth (LB) (S. typhimurium, S. aureus, and E. coli) or Middlebrook 7H9 broth (Mycobacteria) prior to infection. For Salmonella, the culture was then diluted 1:33 in LB and grown for another 3 hours to induce invasive phenotype. Macrophages or microglial cells were plated (5×10^5 cells/well of a 12 well plate) and stimulated overnight with LPS (Ing/ml) and IFN-γ (100 U/ml). […] At the indicated timepoints after adding gentamicin, the cells were washed with PBS, lysed using 0.1% Triton-X in water, diluted and plated in triplicate on agar plates and CFU determined.
# [3] = system: S. typhimurium; assay: Gentamycin protection assay: intracellular S. typhimurium in peritoneal macrophages (PEM); format: cell-based, Salmonella typhimurium; conditions: for additional effect on intracellular replication/killing when combined with P-2 knockdown: inhibitor plus P-2 siRNA knock down; for effect on intracellular killing of Salmonellae: single effector blocked, 1-5 h post-infection
# Protocol: Gentamicin protection assay: S. typhimurium strain LT2Z, Mycobacterium avium, Mycobacterium smegmatis (ATCC), methicllin resistant Staphylococcus aureus and K12 E. coli were grown from glycerol stocks at 37° C. with shaking for 16-18 hr in Luria broth (LB) (S. typhimurium, S. aureus, and E. coli) or Middlebrook 7H9 broth (Mycobacteria) prior to infection. For Salmonella, the culture was then diluted 1:33 in LB and grown for another 3 hours to induce invasive phenotype. Macrophages or microglial cells were plated (5×10^5 cells/well of a 12 well plate) and stimulated overnight with LPS (Ing/ml) and IFN-γ (100 U/ml). Cells were infected the next day at indicated MOI for 30 minutes (S. typhimurium,) or 1 hour (all other bacteria) in 37° C., 5% CO2 incubator. Cells were washed twice with PBS and fresh medium containing 50 μg/ml gentamicin was added. After 2 hours the concentration of gentamicin was lowered to 5 μg/ml. At the indicated timepoints after adding gentamicin, the cells were washed with PBS, lysed using 0.1% Triton-X in water, diluted and plated in triplicate on agar plates and CFU determined.
# The current understanding of bactericidal responses in macrophages is that they are mediated by oxidative mechanisms, such as ROS and NO within the phagosome, and by phagosome-lysosome fusion. To assess the role of P-2 in comparison to ROS and NO in intracellular killing of bacteria, each of the bactericidal effectors was blocked individually or in combination with P-2, and intracellular bacterial survival in peritoneal macrophages (PEM) measured between 1 and 5 hours post-infection utilizing the gentamycin protection assay (FIGS. 1A-1C). Gentamycin is membrane impermeable and present only in the extracellular medium. Inhibition of ROS, NO or P-2 individually had different effects on different bacteria. Using S. typhimurium, ˜90% bacteria present intracellularly in PEM at 1 h were dead at 5 h in the absence of inhibitors (˜10% survival, FIG. 1 A). […] In other words without P-2 ROS and NO have little effect on killing of Salmonellae.
# Here we analyze the bactericidal efficiency of each effector pathway and their synergism. We blocked each effector individually and determined intracellular survival and replication or killing of intracellular S. typhimurium and M. smegmatis. These experiments were carried out with intestinal epithelial cells (CMT93) (not shown) and in IFN-γ activated PEM (FIG. 27e) with virtually identical results. First, we ascertained that IFN-γ activated and LPS stimulated PEM produced ROS and NO and that this production is not affected by P-2 siRNA knock down. We also ascertained that the ROS and NO inhibitors used were specific and active in blocking ROS or NO (not shown). PEM are able to kill about 90% of intracellular Salmonella in the first four hours after infection when all three effectors were active in scramble siRNA transfected cells (FIG. 27e, solid lines). […] M. smegmatis is more resistant to killing by bactericidal effectors within 4 hours. […] Blockade of ROS or NO without P-2 knock down had only limited, non-significant effects on bactericidal activity against Mycobacteria.
# Intracellular bactericidal activity was adapted from. In brief, bacteria were grown at 37° C. with shaking for 16-18 hours in Luria broth (LB) (S. typhimurium, S. aureus, and E. coli) or 24 hours in Middlebrook 7H9 broth (Mycobacteria) prior to infection. For S. typhimurium, E. coli, and S. aureus the culture was then diluted 1:33 in LB and grown for another 3 hours to allow the bacteria to enter log phase and for Salmonella to induce the invasive phenotype. Eukaryotic cells were transfected following Lonza's optimized protocol for the respective cells, and plated into 12-well plates post-transfection. […]
# [4] = system: E. coli, S. typhimurium and M. smegmatis; assay: Bacterial growth in medium with ROS/NO inhibitors, no PEM (OD 600); format: cell-based; conditions: 10 mM, IMDM+10% FBS, 5 hours
# Protocol: E. coli, S. typhimurium and M. smegmatis were grown in IMDM+10% FBS in the presence or absence of NAC (10 mM) or L-NAME (10 mM) for 5 hours. Bacterial growth was measured by spectrophotometer at an OD of 600 nm at 1 and 4 hours after addition of inhibitors to the culture medium.
# [5] = system: P-2 protein; assay: Western blot of P-2 protein in interferon-activated mEF; format: cell-based, murine; conditions: IFN-γ 14 hours then 1 hour MG-132
# Protocol: (§1) Murine embryonic fibroblasts (FIG. 14A), a rectal cancer cell line (FIG. 14B), myoblast cell line (FIG. 14C), and an ovarian cell line (FIG. 14D) were treated for 14 hours with 100 U/ml interferon-α, interferon-β, and interferon-γ treated. LPS was treated at 1 ng/ml; IL-1α at 10 U/ml, IL-1β at 1 ng/ml, and TNFα at 20 ng/mL. A human embryonic kidney cell line (FIG. 14E) and cervical cancer cell line (FIG. 14F) were treated with human IFN-α at 150 U/ml, IFN-β and IFN-γ at 100 U/ml. The BV2 microglial cell line was stimulated with 100 U/ml of murine Interferon-γ for 14 hours to upregulate P-2 mRNA and protein. mEF treated with IFN-γ for 14 hours (mEF), or IFN-γ for 14 hours followed by 1 hour of treatment with […] MG-132 (mEF+MG132) (FIG. 14G). Human primary keratinocytes were analyzed for protein expression with indicated recombinant human IFN treatment (FIG. 14H). mEF were treated with E. coli or M. smegmatis. At indicated time points, cells were harvested and analyzed for P-2 mRNA and compared to uninfected controls by TAQMAN™ PCR. (FIG. 14I) mEF were either not stimulated, or stimulated for 14 hours with IFN-γ at 100 U/ml. After stimulation, mEF were infected with M. smegmatis and analyzed for colony forming units at indicated time points.
# Rabbit anti-Mpeg1 polyclonal antibody was obtained from Abcam and used for western blot analysis.
# [6] = system: P-2 mRNA; assay: P-2 mRNA expression in mEF by TAQMAN PCR after cytokine treatment; format: cell-based, murine; conditions: added singly, 14 hours
# Protocol: as §1
# Recombinant murine IL-1α, IL-1β, TNFα, IFN-γ, IFN-α, IFN-β recombinant human IFN-γ, IFN-β were purchased from preprotech. Recombant human IFN-α was purchased from R&D systems. Murine […] was supplemented at 10 U/mL where indicated. Murine IL-1β was supplemented at 1 ng/ml. Murine TNFα was supplemented at 20 ng/ml. Murine IFN-α, IFN-β and IFN-γ was supplemented with 100 U/ml. Human IFN-α was supplemented where indicated in at a concentration of 150 U/ml where indicated. Human IFN-β and IFN-γ was supplemented at a concentration of 100 U/ml. LPS was added at a concentration of 1 ng/ml.
# RNA was extracted from cells following RNeasy (Qiagen) instructions. One μg of RNA was converted to cDNA using QuantiTect Reverse Transcription kit (Qiagen) following supplier's protocol. qRT-PCR was performed using TAQMAN® Gene Expression Assays (Applied Biosystems) for murine Mpeg1 and GAPDH, with the later serving as a housekeeping control gene. For human tissues, human Mpeg1 and GapDH probes were utilized. All assays were performed on the Applied Biosystems 7300 PCR platform.
molecule,measurement,setting,value
"Cn1cnc(N)c2ncnc1-2 [3-MA, 3-methyl-adenine]",effect on intracellular Salmonella replication in mEF,[1],permits Salmonella replication; also recorded: allows replication of Salmonella
"COC(=O)[C@@H](N)CCCN=C(N)N[N+](=O)[O-].Cl [L-NAME, N^G-nitro-L-arginine-methyl ester hydrochloride]",intracellular killing,[2],Intracellular killing was inhibited
same,additional effect on intracellular replication/killing when combined with P-2 knockdown,[3]; hydrochloride,did not further increase intracellular replication
same,additional effect on intracellular replication/killing when combined with P-2 knockdown,"[3]; listed as NAME, hydrochloride",no further effect
same,effect on intracellular killing of Salmonellae,[3]; hydrochloride,slows down the killing activity
same,effect on bacterial growth in the absence of PEM,[4],do not directly inhibit bacterial growth
CC(C)C[C@@H](C=O)NC(=O)[C@H](CC(C)C)NC(=O)[C@H](CC(C)C)NC(=O)OCc1ccccc1 [MG132] (Cbz-Leu-Leu-Leu-aldehyde),detection of P-2 protein by Western blot,[5],P-2 protein is not detected by Western blot analysis of interferon-activated mEF unless the proteasome inhibitor MG132 is added
"CC(=O)N[C@@H](CS)C(=O)O [NAC, N-Acetylcysteine]",intracellular killing,[2],Intracellular killing was inhibited
same,survival of Salmonellae at 5 h compared to 1 h levels,"[3]; inhibitor 10 mM, added 1 h before infection, ~10% survival without inhibitors",~80%
same,additional effect on intracellular replication/killing when combined with P-2 knockdown,[3],did not further increase intracellular replication; also recorded: no further effect
same,effect on intracellular killing of Salmonellae,[3],slows down the killing activity
same,effect on bacterial growth in the absence of PEM,[4],do not directly inhibit bacterial growth
IFNα,P-2 mRNA induction in mEF,[6],up-regulates P-2 mRNA
TNFα,P-2 mRNA induction in mEF,[6],do not induce P-2 mRNA
"IL-1α: recombinant murine IL-1α (protein, UniProt P01582 115-270, looked up) Interleukin-1 alpha: SAPYTYQSDLRYKLMKLVRQKFVMNDSLNQTIYQDVDKHYLSTTWLNDLQQEVKFDMYAYSSGGDDSKYPVTLKISDSQLFVSAQGEDQPVLLKELPETPKLITGSETDLIFFWKSINSKNYFTSAAYPELFIATKEQSRVHLARGLPSMTDFQIS",P-2 mRNA induction in mEF,[6],do not induce P-2 mRNA
